Laboratory results from the NIST ThermoML archive (doi:10.1016/j.jct.2014.07.001).

Test: xn = mol fraction of the nth substance listed
Conditions: Drop volume

CO [methanol] + CCCC[n+]1ccccc1.F[B-](F)(F)F
x2 = 0
Conditions | surface tension liquid-gas [mN/m]
293.15 K | 22.6
303.15 K | 21.81
313.15 K | 20.93
323.15 K | 20.05

CCCC[n+]1cccc(C)c1.F[B-](F)(F)F [1-butyl-3-methylpyridinium tetrafluoroborate] + CCO
surface tension liquid-gas [mN/m]
Conditions | 293.15 K | 303.15 K | 313.15 K | 323.15 K
x1 = 0.0279 | 22.56 | 21.82 | 21.07 | 20.3
x1 = 0.0486 | 22.72 | 22.04 | 21.34 | 20.64
x1 = 0.0988 | 23.15 | 22.56 | 22.03 | 21.43
x1 = 0.2016 | 24.19 | 23.8 | 23.55 | 23.17
x1 = 0.2987 | 25.71 | 25.43 | 25.32 | 25.07
x1 = 0.3978 | 27.89 | 27.63 | 27.56 | 27.34
x1 = 0.5001 | 30.59 | 30.28 | 30.15 | 29.91
x1 = 0.5865 | 33.12 | 32.73 | 32.51 | 32.21
x1 = 0.6878 | 36.16 | 35.68 | 35.34 | 34.96
x1 = 0.7851 | 39.08 | 38.51 | 38.04 | 37.59
x1 = 0.887 | 42.04 | 41.38 | 40.81 | 40.3
x1 = 0.945 | 43.68 | 42.99 | 42.35 | 41.81
x1 = 1 | 45.21 | 44.48 | 43.8 | 43.24

CCO [ethanol] + CCCC[n+]1ccc(C)cc1.F[B-](F)(F)F
x2 = 0
Conditions | surface tension liquid-gas [mN/m]
293.15 K | 22.28
303.15 K | 21.49
313.15 K | 20.66
323.15 K | 19.84

CCC[n+]1ccccc1.F[B-](F)(F)F [1-propylpyridinium tetrafluoroborate] + CO
surface tension liquid-gas [mN/m]
Conditions | 293.15 K | 303.15 K | 313.15 K | 323.15 K
x1 = 0.0478 | 23.84 | 23.07 | 22.2 | 21.35
x1 = 0.0964 | 25.01 | 24.31 | 23.48 | 22.68
x1 = 0.1993 | 27.35 | 26.84 | 26.18 | 25.55
x1 = 0.3036 | 29.78 | 29.49 | 28.99 | 28.48
x1 = 0.3934 | 32.15 | 31.84 | 31.46 | 31.02
x1 = 0.4987 | 35.23 | 34.81 | 34.46 | 34.04
x1 = 0.5926 | 38.18 | 37.63 | 37.21 | 36.76
x1 = 0.6946 | 41.44 | 40.83 | 40.29 | 39.77
x1 = 0.7836 | 44.31 | 43.66 | 43.04 | 42.45
x1 = 0.8822 | 47.5 | 46.81 | 46.15 | 45.44
x1 = 0.945 | 49.5 | 48.78 | 48.1 | 47.36
x1 = 1 | 51.29 | 50.51 | 49.79 | 49.03

CO [methanol] + CCCC[n+]1ccc(C)cc1.F[B-](F)(F)F
x2 = 0
Conditions | surface tension liquid-gas [mN/m]
293.15 K | 22.6
303.15 K | 21.81
313.15 K | 20.93
323.15 K | 20.05

CCO [ethanol] + CCCC[n+]1ccccc1.F[B-](F)(F)F
x2 = 0
Conditions | surface tension liquid-gas [mN/m]
303.15 K | 21.49
313.15 K | 20.66
323.15 K | 19.84

CCCC[n+]1cccc(C)c1.F[B-](F)(F)F [1-butyl-3-methylpyridinium tetrafluoroborate] + CO
surface tension liquid-gas [mN/m]
Conditions | 293.15 K | 303.15 K | 313.15 K | 323.15 K
x1 = 0.0489 | 23.93 | 23.18 | 22.36 | 21.55
x1 = 0.1011 | 25.33 | 24.62 | 23.88 | 23.15
x1 = 0.1984 | 27.89 | 27.26 | 26.63 | 26.04
x1 = 0.2961 | 30.43 | 29.87 | 29.36 | 28.9
x1 = 0.4021 | 33.15 | 32.66 | 32.26 | 31.9
x1 = 0.4935 | 35.36 | 34.89 | 34.55 | 34.25
x1 = 0.5892 | 37.57 | 37.12 | 36.81 | 36.56
x1 = 0.688 | 39.67 | 39.2 | 38.86 | 38.62
x1 = 0.7395 | 40.72 | 40.22 | 39.87 | 39.6
x1 = 0.8001 | 41.87 | 41.35 | 40.95 | 40.65
x1 = 0.8803 | 43.3 | 42.72 | 42.23 | 41.86
x1 = 0.935 | 44.21 | 43.56 | 42.99 | 42.53
x1 = 1 | 45.21 | 44.48 | 43.8 | 43.24

CCCC[n+]1ccc(C)cc1.F[B-](F)(F)F [1-butyl-4-methylpyridinium tetrafluoroborate] + CO
surface tension liquid-gas [mN/m]
Conditions | 293.15 K | 303.15 K | 313.15 K | 323.15 K
x1 = 0.0247 | 23.3 | 22.55 | 21.71 | 20.88
x1 = 0.0983 | 25.35 | 24.66 | 23.92 | 23.23
x1 = 0.195 | 27.93 | 27.31 | 26.68 | 26.12
x1 = 0.2914 | 30.53 | 29.98 | 29.46 | 29.05
x1 = 0.3909 | 33.11 | 32.62 | 32.2 | 31.91
x1 = 0.4915 | 35.62 | 35.17 | 34.81 | 34.6
x1 = 0.5378 | 36.77 | 36.34 | 36.02 | 35.84
x1 = 0.61 | 38.46 | 38.04 | 37.73 | 37.57
x1 = 0.6875 | 40.19 | 39.77 | 39.45 | 39.29
x1 = 0.7911 | 42.37 | 41.9 | 41.55 | 41.32
x1 = 0.842 | 43.32 | 42.81 | 42.4 | 42.1
x1 = 0.8754 | 43.91 | 43.36 | 42.91 | 42.54
x1 = 1 | 45.82 | 45.09 | 44.41 | 43.71

CCCC[n+]1ccccc1.F[B-](F)(F)F [1-butylpyridinium tetrafluoroborate] + CO
surface tension liquid-gas [mN/m]
Conditions | 293.15 K | 303.15 K | 313.15 K | 323.15 K
x1 = 0.025 | 23.33 | 22.59 | 21.77 | 20.96
x1 = 0.0527 | 24.1 | 23.41 | 22.64 | 21.9
x1 = 0.0987 | 25.37 | 24.73 | 24.04 | 23.38
x1 = 0.1944 | 27.89 | 27.37 | 26.74 | 26.23
x1 = 0.2933 | 30.44 | 29.92 | 29.38 | 28.96
x1 = 0.3978 | 33.04 | 32.55 | 32.07 | 31.7
x1 = 0.4934 | 35.37 | 34.9 | 34.46 | 34.11
x1 = 0.5891 | 37.67 | 37.21 | 36.77 | 36.46
x1 = 0.6784 | 39.74 | 39.26 | 38.82 | 38.5
x1 = 0.7864 | 42.16 | 41.64 | 41.17 | 40.81
x1 = 0.8724 | 44.06 | 43.5 | 42.97 | 42.54
x1 = 0.93 | 45.33 | 44.76 | 44.17 | 43.69
x1 = 1 | 46.9 | 46.3 | 45.69 | 45.11

CCCC[n+]1ccc(C)cc1.F[B-](F)(F)F [1-butyl-4-methylpyridinium tetrafluoroborate] + CCO
surface tension liquid-gas [mN/m]
Conditions | 293.15 K | 303.15 K | 313.15 K | 323.15 K
x1 = 0.0497 | 22.7 | 22.02 | 21.32 | 20.63
x1 = 0.0993 | 23.17 | 22.6 | 22.02 | 21.44
x1 = 0.1995 | 24.47 | 24.08 | 23.68 | 23.27
x1 = 0.2946 | 25.95 | 25.68 | 25.41 | 25.14
x1 = 0.36 | 27.2 | 26.98 | 26.77 | 26.55
x1 = 0.4269 | 28.57 | 28.38 | 28.22 | 28.04
x1 = 0.4882 | 29.99 | 29.81 | 29.65 | 29.49
x1 = 0.589 | 32.66 | 32.44 | 32.25 | 32.05
x1 = 0.7001 | 35.92 | 35.61 | 35.34 | 35.05
x1 = 0.7895 | 38.75 | 38.33 | 37.95 | 37.57
x1 = 0.8345 | 40.28 | 39.79 | 39.35 | 38.89
x1 = 0.8805 | 41.85 | 41.29 | 40.77 | 40.25
x1 = 1 | 45.82 | 45.09 | 44.41 | 43.71

CO [methanol] + CCCC[n+]1cccc(C)c1.F[B-](F)(F)F
x2 = 0
Conditions | surface tension liquid-gas [mN/m]
293.15 K | 22.6
303.15 K | 21.81
313.15 K | 20.93
323.15 K | 20.05

CCO [ethanol] + CCCC[n+]1cccc(C)c1.F[B-](F)(F)F
x2 = 0
Conditions | surface tension liquid-gas [mN/m]
293.15 K | 22.28
303.15 K | 21.49
313.15 K | 20.66
323.15 K | 19.84

CCCC[n+]1ccccc1.F[B-](F)(F)F [1-butylpyridinium tetrafluoroborate] + CCO
surface tension liquid-gas [mN/m]
Conditions | 303.15 K | 313.15 K | 323.15 K
x1 = 0.05 | 22.16 | 21.51 | 20.72
x1 = 0.1021 | 22.72 | 22.17 | 21.41
x1 = 0.1959 | 23.54 | 23.25 | 22.74
x1 = 0.2902 | 24.72 | 24.48 | 24.26
x1 = 0.3922 | 26.57 | 26.27 | 26.25
x1 = 0.4914 | 28.89 | 28.68 | 28.54
x1 = 0.5953 | 31.85 | 31.63 | 31.45
x1 = 0.6898 | 35.04 | 34.75 | 34.53
x1 = 0.7903 | 38.62 | 38.26 | 38.01
x1 = 0.8879 | 42.28 | 41.85 | 41.5
x1 = 0.94 | 44.15 | 43.62 | 43.24
x1 = 1 | 46.3 | 45.69 | 45.11

CO [methanol] + CCC[n+]1ccccc1.F[B-](F)(F)F
x2 = 0
Conditions | surface tension liquid-gas [mN/m]
293.15 K | 22.6
303.15 K | 21.81
313.15 K | 20.93
323.15 K | 20.05
